# Entries after “also recorded” stand apart in the source; their conditions may differ. Square brackets hold non-standard residues; d marks the D form. Peptide text beside a SMILES is read from it. N(1-naphthylmethyl)Gly = O=C(O)CNCc1cccc2ccccc12; d1Nal = N[C@H](Cc1cccc2ccccc12)C(=O)O; N(4-MeBn)Gly = Cc1ccc(CNCC(=O)O)cc1; dNle = CCCC[C@@H](N)C(=O)O; NBuGly = CCCCNCC(=O)O
# What was measured:
# [1] = Precipitation in time-kill media; assay type: physicochemical; details: time-kill experiment against P. aeruginosa, MHB II
# Procedure: (§1) Time kill assays were performed in triplicate, meaning that every value is the average of three different samplings. Time–kill kinetic assays were performed using P. aeruginosa (26314), MRSP E104 and/or MRSP C22963 to determine the cell killing activity of B1 and two of its most promising analogues (compounds 23 and 26) based on prior antimicrobial susceptibility testing. The method reported by Blondeau et al.[63] was followed with minor modifications. Briefly, the assay was performed in MHB II with concentrations corresponding to 0.5, 1, 2 and 4 times the MIC of the strain. After 0, 15, 30, 60, 120, 180 and 300 min of growth, 100 μL aliquots were collected and 10-fold serially diluted. Twenty μL of cell suspension from each dilution were spotted in triplicate on blood agar plates followed by 16–18 h incubation at 37 °C and determination of colony forming units (CFU).
# P. aeruginosa isolates = experiment: MIC, panel of 50 canine P. aeruginosa isolates; assay type: cell-based, Pseudomonas aeruginosa
# Procedure: Activity of B1 was tested on 50P. aeruginosa isolates and 57S. pseudintermedius isolates (including 7 MRSP) that had been isolated in the diagnostic laboratory Sund Vet Diagnostik (University of Copenhagen) from various infections in dogs between 2009 and 2011. Representative MRSP (C22963), MSSA, and P. aeruginosa (26314) were used for testing the first set of B1 analogues.
# MIC determination was performed by broth microdilution according to the Clinical and Laboratory Standard Institute (CLSI, M31-A3, 2008)[62]. In brief, each bacterial strain was diluted to concentration of 5 × 10^5 CFU/mL in Mueller Hinton broth II (MHB II) media (Oxoid) and added to a two-fold serial dilution of peptides and peptide-peptoid hybrids concentrations ranging from 1 to 64 µg/ml in 96-well plates (Nunc Internationals, Rochester, NY). The MICs were determined as a lowest concentration showing no visible growth after incubation for 18 hours at 37 °C. Experiments were performed in triplicates on two different days.
# [2] = system: membrane potential of MRSP E104; experiment: DiSC3(5) fluorescence-based membrane potential study; assay type: cell-based, Staphylococcus pseudintermedius; details: MRSP E104, sub-inhibitory concentration 1.5 µg/mL
# Procedure: Freshly sub-cultured E104 cells were labelled with 1 µM 3,3-Dipropylthiadicarbocyanine iodide [DiSC3(5)] (Sigma) in MHB II. The fluorescence spectra of labelled cells were plotted in the LS50B luminescence spectrometer (PerkinElmer) at excitation/emission wavelengths 546 nm/573 nm using time drive application of FLWINLAB software. After reading an initial stable emission spectra of DiSC3(5), labelled cells were treated with B1 or nisin or protonophore CCCP at 1, 1.5 and 1.25 µg/ml, respectively and the change of fluorescence over time was recorded. The increment of DiSC3(5) fluorescence upon addition of antimicrobials or CCCP (FUafter-treatment – FUbefore-treatment) was plotted. This experiment was performed twice and each time with two technical replicates.
# human red blood cells = system: human red blood cells; parameters: method as in PMID 29534469; details: at 150 µM; cited from earlier work
# [3] = topical delivery from cream formulation; cited from earlier work
# MRSP E104 [4] = experiment: High-throughput growth curves (BioScreen); assay type: cell-based, Staphylococcus pseudintermedius; details: 3 µg/ml; decrease of OD over time
# Procedure: The effects of B1 on the growth of a reference MRSP strain (ST71, E104) were evaluated using BioScreen (Oy Growth Curves Ab LTd, Finland). A well characterized antimicrobial peptide, Nisin, was used as a positive control. […] The OD600 of each micro-culture was measured and recorded every 15 min after a 5 second pause of shaking in automatic mode. The recorded ODs were plotted against time to prepare the growth curves. The assay was performed with technical and biological replicates, and one representative result was presented.
# [5] = system: DNA synthesis in MRSP E104; experiment: Macromolecule biosynthesis rate, DNA (3H-Thymidine); assay type: cell-based, Staphylococcus pseudintermedius; details: MRSP E104, 1.5 µg/mL, 20 min
# Procedure: (§2) Macromolecule biosynthesis rate was measured in MRSP E104 following a protocol adapted from Ling et al.[65]. Briefly, E104 overnight culture was sub-cultured 1:100 in MHB II and grown up to OD 0.2 at 600 nm. Cells were pelleted down by centrifugation and resuspended in fresh medium followed by incubation for 20 min with B1 or nisin at 1.5 µg/ml and 1.25 µg/ml, respectively, and radiolabeled precursor: (50µCi) 3H-Thymidine (PerkinElmer) and (5µCi) 3H-glucosamine hydrochloride per ml for DNA and cell wall, respectively. A positive control without antimicrobial was maintained. After incubation, samples were precipitated with equal volume of cold 30% TCA (Sigma) on ice. Precipitates were filtered on a membrane filter and subsequently subjected to two washes of cold 15% TCA and two washes of cold water using vacuum manifold. Subsequently, filters were air dried overnight and then transferred to 10 ml scintillation vials. Finally, scintillation fluid (3 ml) was added to each vial and ^3H count was taken in Beckman Coulter LS6500 liquid scintillation counter for one minute. The radioactive counts of the control samples were considered to have 100% precursor incorporation and macromolecule synthesis. The percentage rates of the antimicrobial-exposed samples were calculated accordingly. Each experiment was performed with replicates and the average rates of incorporation were plotted.
# MRSP E104 [6] = experiment: Time-kill kinetics, MRSP E104; assay type: cell-based, Staphylococcus pseudintermedius
# Procedure: as §1, with “Briefly, the assay was performed in MHB II with concentrations corresponding to 0.5, 1, 2 and 4 times the MIC of the strain.” left out
# [7] = system: cell wall synthesis in MRSP E104; experiment: Macromolecule biosynthesis rate, cell wall (3H-glucosamine); assay type: cell-based, Staphylococcus pseudintermedius; details: MRSP E104, 1.5 µg/mL, 20 min
# Procedure: as §2
Compound,precipitation in the media [1],MICs against a panel of 50 P. aeruginosa isolates (P. aeruginosa isolates) [µg/mL],"membrane potential, DiSC3(5) fluorescence emission [2]",hemolytic activity (human red blood cells) [%],skin penetration after administration [3],growth curve effect on MRSP E104 (MRSP E104 [4]),effect on DNA replication [5],time to complete killing of MRSP E104 (MRSP E104 [6]; 2 × MIC) [h],time to complete killing of MRSP E104 (MRSP E104 [6]; 4 × MIC) [h],time to kill MRSP (MRSP E104 [6]; 8 x MIC),reduction in cell wall synthesis [7] [%]
"CCCC[C@@H](NC(=O)[C@H](CCCCN)NC(=O)[C@H](CCCCN)NC(=O)[C@@H](N)CCCCN)C(=O)N[C@H](Cc1cccc2ccccc12)C(=O)N[C@H](Cc1ccccc1)C(=O)N[C@H](Cc1cccc2ccccc12)C(N)=O [Compound 26, Lys-Lys-Lys-nle-(1-Nal)ala-phe-(1-Nal)ala] (H-KKK[dNle][d1Nal][dF][d1Nal]-NH2; N-terminus assumed)",precipitated after 15 min,,,,,,,,,,
"CCCCN(CC(=O)N[C@@H](CCCCN)C(=O)N(CC(=O)N(CC(=O)N(CC(N)=O)Cc1cccc2ccccc12)Cc1ccc(C)cc1)Cc1cccc2ccccc12)C(=O)[C@H](CCCCN)NC(=O)[C@@H](N)CCCCN [B1, Lys-Lys-(NBu)Gly-Lys-(N1-Nal)Gly-(N4-MeBn)Gly-(N1-Nal)Gly] (H-KK[NBuGly]K[N(1-naphthylmethyl)Gly][N(4-MeBn)Gly][N(1-naphthylmethyl)Gly]-NH2)",,8 to 16,significant membrane depolarization,32,no skin penetration,cell lysis,without affecting DNA replication; also recorded: no effect on DNA replication,2,1,less than 30 min,20

# From publication PMC6403271, “Characterization, mechanism of action and optimization of activity of a novel peptide-peptoid hybrid against bacterial pathogens involved in canine skin infections” (Scientific Reports, 2019)
